“And” between values parts separate entries of the source, which are not always exact repeats. Equal entries are not always repeated.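 Cultured in 96-well plates, cells were exposed to test compound for 48 hours across five concentrations. The concentration for 50% growth inhibition is given as GI50. At the TGI there is no net growth.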
Legend:
Assay in all cases: growth of human tumour cells (NCI), 48 h
[1] = tested on: A498 renal
[2] = tested on: ACHN renal
[3] = tested on: HCT-116 colon
[4] = tested on: HL-60(TB) leukemia
[5] = tested on: MALME-3M melanoma
[6] = tested on: SF-295 CNS
[7] = tested on: SNB-19 CNS
[8] = tested on: SW-620 colon
[9] = tested on: TK-10 renal
[10] = tested on: MDA-MB-435

SMILES | TGI [1] [µM] | TGI [2] [µM] | TGI [3] [µM] | TGI [4] [µM] | TGI [5] [µM] | TGI [6] [µM] | TGI [7] [µM] | TGI [8] [µM] | TGI [9] [µM] | GI50 [2] [µM] | GI50 [4] [µM] | GI50 [5] [µM] | GI50 [7] [µM] | GI50 [9] [µM] | TGI [10] [µM] | GI50 [1] [µM] | GI50 [3] | GI50 [8] | GI50 [10] [nM] | GI50 [6] [nM]
O=C1c2ccccc2C(=O)c2sc(Nc3ccc(Cl)c(Cl)c3)nc21 | 31.6 | 3.17 | 7.3 | 1.18 | 9.47 | 29.4 | 32.9 | 3.19 | 21.8 |  |  |  |  |  |  |  |  |  |  | 
Oc1[nH]c2ccc(Cl)cc2c1/C=c1/ccc2c(c1)N=C(c1cc(F)cc(F)c1)N=2 |  | > 100 |  | 7.23 | > 100 |  | > 100 |  | > 100 | 7.42 | 3.39 | 57.5 | > 100 | 7.22 |  |  |  |  |  | 
CCOC(=O)C1(Cc2ccc3ccccc3c2)CCCCCN1 (centres undefined) |  | > 100 |  | 52 | 33.9 | 39 | > 100 | 64.9 | > 100 |  |  |  |  |  |  |  |  |  |  | 
O=c1[nH]c2c(O)cccc2c2cc3c(c(O)c12)OCO3 | 56.5 | 49.4 | 54.1 | 31.1 | 56.4 | 44.8 | 70.5 | > 100 | > 100 |  |  |  |  |  |  |  |  |  |  | 
O=[N+]([O-])c1cc(/C=N/NS(=O)(=O)c2ccc(F)cc2)c(O)c([N+](=O)[O-])c1 | 78.1 | > 100 | > 100 | 67.3 | > 100 | > 100 | > 100 | > 100 | > 100 |  |  |  |  |  |  |  |  |  |  | 
O=C1c2cccc3cc([N+](=O)[O-])cc(c23)C(=O)N1O |  | > 100 | > 100 | > 100 | > 100 | > 100 | > 100 | > 100 | 83.6 |  |  |  |  |  | > 100 |  |  |  |  | 
CCOC(=O)CNC(=O)C(CSC(=O)N(C)O)NC(=O)CCC(N)C(=O)O (centres undefined) | > 2000 | > 2000 |  | > 2000 | > 2000 |  | > 2000 | > 2000 | > 2000 | > 2000 | > 2000 | > 2000 | > 2000 | > 2000 |  | > 2000 | > 2000 µM | > 2000 µM |  | 
CC1(C)CC2CC(C)(CN2c2ncnc3ccc(Br)cc23)C1 (centres undefined) |  | 27 |  | 3.48 | 11.6 | 16.3 | 30.5 | 30.7 | 23.6 | 14.1 | 1.38 | 0.195 | 14.4 | 11.4 | 27.7 |  |  | 15 µM | 3980 | 3340
NC(=O)CCC(NC(=O)C(F)(F)F)C(=O)O (centres undefined) | > 100 | > 100 | > 100 |  | > 100 | > 100 | > 100 | > 100 | > 100 |  |  |  |  |  |  |  |  |  |  | 
CC(C)[O-].CC(C)[O-].[O-]c1cccc2cccnc12.[O-]c1cccc2cccnc12.[Ti+4] |  | > 100 | > 100 |  | > 100 | > 100 | > 100 | > 100 | > 100 | 88.6 | 2.24 | 25.7 | 61.6 | 34.4 |  |  | 3.24 µM and 3.87 µM | 6.47 µM and 5.89 µM |  | > 100000
COc1cc(C2C(C#N)=C(N)Oc3cc4c(cc32)OCO4)cc2c1OCO2 (centres undefined) |  | > 100 | > 100 | 0.715 | > 100 | > 100 | > 100 | > 100 | > 79.8 | 2.3 | 0.219 | 2.67 | 0.709 | 2.36 |  | 0.103 | 0.455 µM | 0.276 µM |  | 209
COc1ccc(-n2sc(=O)n(Cc3ccc(COC(=O)C(C)c4ccc(CC(C)C)cc4)cc3)c2=O)cc1 (centres undefined) |  | 2.05 | 2.08 | 4.89 | 2.3 | 24.1 | 14.5 | 1.82 | 2.17 | 0.996 | 1.23 | 1.04 | 7.38 | 0.997 | 3.93 |  | 0.979 µM | 0.9 µM | 1320 | 10600
C[N+]1=c2c3cccc4cccc(c(=O)n2CCC1)c43 | 36.5 | 51.8 | 43.6 | 25.3 | 32.9 | > 100 |  | > 100 | 56.4 |  |  |  |  |  |  |  |  |  |  | 
COc1ccc(-c2cncn2-c2cc(OC)c(OC)c(OC)c2)cc1F | 25 |  | 15.8 | < 0.0288 | > 100 |  | > 100 | > 100 | > 100 |  | 0.0103 | 49 | < 0.0146 | 18.4 |  | < 0.0495 | < 0.0158 µM | < 0.0177 µM |  | < 14.2
COC(=O)C1=Cc2c(OC)cc(OC)c(OC)c2[C@H](c2cc(OC)c(OC)cc2OC)C1C(=O)OC (some centres undefined) | > 100 | > 100 | > 100 | > 100 | > 100 | > 100 | > 100 | > 100 | > 100 |  |  |  |  |  |  |  |  |  |  | 
CC12C(=O)N(CCN)C(=O)C1C1c3ccccc3C2c2ccccc21 (centres undefined) | > 100 | > 100 | > 100 | > 100 | > 100 | > 100 | > 100 | > 100 | > 100 |  |  |  |  |  |  |  |  |  |  | 
O=C1CCC(=O)C(C(=O)CCC(=O)Nc2cccc(Cl)c2)C1 (centres undefined) | > 100 | > 100 | > 100 | > 100 | > 100 | > 100 | > 100 | > 100 | > 100 |  |  |  |  |  |  |  |  |  |  | 
CC12OC3CC(O1)C1(C=O)C4CCC5(C)C(c6ccc(=O)oc6)CCC5(O)C4CCC1(C3)O2 (centres undefined) | 1.35 | 0.348 | 0.399 | 0.474 | 0.51 | 1.02 | 1.78 | 1.27 | 0.472 |  |  |  |  |  |  |  |  |  |  | 
CC(C)NC(=O)O/N=C1\CCC2[C@@H]3CC=C4C[C@@H](OC(=O)NC(C)C)CC[C@]4(C)C3CC[C@]12C (some centres undefined) | > 30.3 | 2.17 | 4.94 | 5.37 | 0.983 | 7.67 | 6.05 | 3.72 | 3.15 |  |  |  |  |  |  |  |  |  |  | 
CC1=NN(c2ccccc2)C(=O)C1N=Nc1ccc(Br)c(C)c1 (centres undefined) | > 100 | > 100 | > 100 | > 100 | > 100 | > 100 | > 100 | > 100 | > 100 |  |  |  |  |  |  |  |  |  |  | 
CCc1oc2ccc(OC)c3c2c1C=CC=C3 | > 100 | > 100 |  | > 100 | > 100 | > 100 | > 100 | > 100 | > 100 |  |  |  |  |  |  |  |  |  |  | 
OC1C2C=CCC1CCC2 (centres undefined) | > 100 | > 100 | > 100 | > 100 | > 100 | > 100 | > 100 | > 100 | > 100 |  |  |  |  |  |  |  |  |  |  | 
CCOc1cc(/C=N\NC(=O)N/N=C/c2ccc(O)c(OCC)c2)ccc1O | 61.3 | > 100 | > 100 | > 39.2 | > 100 | > 100 | > 100 | > 100 | > 100 | 7.99 | 2.5 | 0.973 | 4 | > 29.1 |  | 5.68 | 0.866 µM | 0.959 µM |  | 2250
CCC[CH2][Sn]1([CH2]CCC)[O]C(=O)c2cc(C)ccc2[O]1 | 1.79 | 1.59 | 2.33 | 0.444 | 0.938 | 1.99 | 1.93 | 0.574 | 1.18 | 0.457 | 0.164 | 0.112 | 0.7 | 0.385 |  | 0.565 | 1.12 µM | 0.211 µM |  | 628
CC[O-].CC[O-].O=C([CH-]C(=O)c1ccccc1)c1ccccc1.O=C([CH-]C(=O)c1ccccc1)c1ccccc1.[Ti+4] | > 100 | > 100 | > 100 | > 100 | > 100 | > 100 |  | > 100 | > 100 | > 100 | 25.3 | > 100 |  | > 100 |  | > 100 | > 100 µM | > 100 µM |  | > 100000
Cc1cc2c(cc1C)[n+]([O-])c(-c1c(Cl)cccc1Cl)c(N)[n+]2[O-] | 79.9 | > 100 |  | > 100 | 92.3 | > 100 | > 100 | > 100 | > 100 |  |  |  |  |  |  |  |  |  |  | 
Cc1cc(C)c2[s+]snc2c1 | > 100 | > 100 | > 100 | 44.7 | > 100 | > 100 | > 100 | > 100 | > 100 |  |  |  |  |  |  |  |  |  |  | 
C[C@]12CCCC(=O)C1C[C@H](C(=O)O)CC2 (some centres undefined) | > 100 | > 100 | > 100 | > 100 | > 100 | > 100 | > 100 | > 100 | > 100 |  |  |  |  |  |  |  |  |  |  | 
